Measured values: patent publication EP0496162A2, “Peptide inhibitors of RAS-GAP interaction” (MERCK & CO. INC., priority 1990, dated 1992)
No end group written: not given here.

Columns and labels:
[1] = target: T1, S. cerevisiae adenylyl cyclase (Ras Dependent, strain FlD reconstituted with purified Ras) (Saccharomyces cerevisiae, UniProt P08678); test: Yeast adenylyl cyclase assay, reconstitution of FlD membranes with purified Ras protein; format: biochemical; conditions: part B, FlD membranes with 5 µM purified Ras protein, peptide 10 µM
T1 construct: Since these membranes contain adenylyl cyclase, but are lacking Ras protein; endogenous in cells; host or cells: membranes of S. cerevisiae strain FlD
T1 sequence (P08678 whole entry): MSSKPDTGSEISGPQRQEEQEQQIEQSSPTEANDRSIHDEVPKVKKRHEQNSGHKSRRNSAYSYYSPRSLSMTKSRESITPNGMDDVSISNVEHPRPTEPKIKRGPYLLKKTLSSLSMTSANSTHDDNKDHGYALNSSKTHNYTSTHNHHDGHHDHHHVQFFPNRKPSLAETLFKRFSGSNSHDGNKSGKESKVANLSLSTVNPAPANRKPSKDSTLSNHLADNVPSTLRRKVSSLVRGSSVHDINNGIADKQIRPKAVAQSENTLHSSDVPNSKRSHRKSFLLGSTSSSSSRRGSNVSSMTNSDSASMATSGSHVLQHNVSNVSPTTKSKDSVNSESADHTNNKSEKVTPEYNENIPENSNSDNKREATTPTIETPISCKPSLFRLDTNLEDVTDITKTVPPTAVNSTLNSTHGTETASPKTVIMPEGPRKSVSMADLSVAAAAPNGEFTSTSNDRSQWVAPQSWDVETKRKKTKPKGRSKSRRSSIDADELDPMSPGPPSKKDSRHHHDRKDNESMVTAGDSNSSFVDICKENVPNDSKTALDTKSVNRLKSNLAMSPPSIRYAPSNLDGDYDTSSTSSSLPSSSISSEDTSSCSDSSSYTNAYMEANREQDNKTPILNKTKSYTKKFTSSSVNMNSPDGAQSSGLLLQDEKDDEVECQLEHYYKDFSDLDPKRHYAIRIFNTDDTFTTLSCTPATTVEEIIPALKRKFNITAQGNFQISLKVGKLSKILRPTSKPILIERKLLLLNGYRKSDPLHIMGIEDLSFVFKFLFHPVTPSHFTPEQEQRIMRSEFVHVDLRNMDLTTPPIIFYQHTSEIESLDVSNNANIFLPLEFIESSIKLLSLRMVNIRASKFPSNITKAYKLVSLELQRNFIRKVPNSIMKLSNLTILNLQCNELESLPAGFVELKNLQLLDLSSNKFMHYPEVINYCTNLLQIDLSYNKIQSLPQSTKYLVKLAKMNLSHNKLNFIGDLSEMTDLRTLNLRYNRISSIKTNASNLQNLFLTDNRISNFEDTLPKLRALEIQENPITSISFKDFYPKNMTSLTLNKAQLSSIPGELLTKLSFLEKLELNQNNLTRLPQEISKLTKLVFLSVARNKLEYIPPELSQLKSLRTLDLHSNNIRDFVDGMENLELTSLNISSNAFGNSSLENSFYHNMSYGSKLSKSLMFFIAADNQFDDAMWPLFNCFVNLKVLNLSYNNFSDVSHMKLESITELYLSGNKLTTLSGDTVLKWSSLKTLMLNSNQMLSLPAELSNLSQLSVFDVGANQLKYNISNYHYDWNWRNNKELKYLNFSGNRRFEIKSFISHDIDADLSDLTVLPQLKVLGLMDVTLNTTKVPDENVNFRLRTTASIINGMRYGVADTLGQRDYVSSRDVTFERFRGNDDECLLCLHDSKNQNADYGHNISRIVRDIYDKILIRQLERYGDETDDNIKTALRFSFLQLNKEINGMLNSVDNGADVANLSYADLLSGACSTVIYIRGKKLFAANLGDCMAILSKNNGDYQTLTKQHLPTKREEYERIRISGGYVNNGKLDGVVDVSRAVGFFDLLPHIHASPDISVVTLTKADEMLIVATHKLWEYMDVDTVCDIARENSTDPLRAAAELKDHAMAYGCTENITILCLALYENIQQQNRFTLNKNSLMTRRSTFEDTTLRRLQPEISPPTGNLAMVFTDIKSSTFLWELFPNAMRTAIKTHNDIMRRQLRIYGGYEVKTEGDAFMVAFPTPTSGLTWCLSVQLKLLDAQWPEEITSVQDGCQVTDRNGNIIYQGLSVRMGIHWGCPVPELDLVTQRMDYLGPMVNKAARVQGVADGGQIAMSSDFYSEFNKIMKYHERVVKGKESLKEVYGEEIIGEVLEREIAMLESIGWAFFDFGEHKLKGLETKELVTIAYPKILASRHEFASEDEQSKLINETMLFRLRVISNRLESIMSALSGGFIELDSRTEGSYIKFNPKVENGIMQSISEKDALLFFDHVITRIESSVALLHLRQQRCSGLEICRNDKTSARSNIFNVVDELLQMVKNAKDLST
Source text: (§1) Another Ras-dependent enzymatic assay was used to extend the observed ability of the peptides of the present invention to inhibit Ras function. This system, yeast adenylyl cyclase assay, measures the Ras-dependent conversion of ATP into cyclic AMP (cAMP). […] Furthermore, in S. cerevisiae, regulation of cAMP metabolism appears to be a major function of Ras. This assay system was used to extend the observed Ras inhibitory activity of the peptides of the present invention, to a Ras function which is GAP-unrelated. S. cerevisiae strain FlD lacks functional Ras proteins, however FlD cells have functional adenylyl cyclase in their cell membrane. […] Similarly, a recombinant S. cerevisiae strain MY1186, lacks yeast Ras proteins but expresses mammalian Ras protein which functions with adenylyl cyclase to regulate cAMP metabolisim in the yeast cells. […] In contrast, S. cerevisiae strain JC377-10B contains a mutant form of adenylyl cyclase which constitutively converts ATP into cAMP with or without Ras.
(§2) Ras peptides were tested at the indicated concentrations for inhibition of S. cerevisiae adenylyl cyclase activity. […] Ras-independent activity was assayed with membranes from strain JC377-10B (ras-minus, constitutively active adenylyl cyclase).
(§3) Yeast strain FlD, MY1186 and JC377-10B, were grown in YEHD medium at 30°C. Membrane fractions were prepared from cultures grown to an A₆₆₀ of 0.5 to 1.0 by glusulase digestion [Casperson, G.F. et al., (1983), J. Biol. Chem., 258, pp. 7911-7914], Dounce homogenization of the spheroplasts in buffer containing 50 mM sodium MES [2(N-morpholino) ethanesulfonic acid] […] Adenylyl cyclase assays (100-µL reaction volume) measured the conversion of [α-³²P]ATP to [³²P]cAMP at 30°C, using 50 µg to 100 µg of membrane protein in assays using membranes from yeast strains MY1186 and JC377-10B.. […] Since these membranes contain adenylyl cyclase, but are lacking Ras protein, stimulation of adenylyl cyclase activity may be measured following reconstitution with purified Ras complexed with GTP. […]

[2] = target: T2, S. cerevisiae adenylyl cyclase (Ras Dependent, strain MY1186) (Saccharomyces cerevisiae, UniProt P08678); test: Yeast adenylyl cyclase assay, Ras-dependent, membranes from strain MY1186 (expresses mammalian Ras); format: biochemical; conditions: part A
T2 construct: S. cerevisiae strain MY1186 lacks endogenous yeast Ras, expresses viral Ha-Ras, and has a Ras-dependent adenylyl cyclase; endogenous in cells; host or cells: membranes of recombinant S. cerevisiae strain MY1186 (cyclase endogenous; Ha-Ras heterologously expressed)
T2 sequence (P08678 whole entry): as above
Source text: as §1, §2, §3

Row | Compound | %Inhibition of Adenylyl Cyclase Activity Ras Dependent [1] [%] | %Inhibition of Adenylyl Cyclase Activity Ras Dependent ([2]; peptide 19 µM) [%] | %Inhibition of Adenylyl Cyclase Activity Ras Dependent ([2]; peptide 100 µM) [%] | %Inhibition of Adenylyl Cyclase Activity Ras Dependent ([2]; peptide 40 µM) [%]
1 | CC[C@H](C)[C@H](NC(=O)[C@H](CC(C)C)NC(=O)[C@H](CCC(N)=O)NC(=O)[C@@H](NC(=O)[C@@H](NC(=O)[C@H](CC(C)C)NC(=O)[C@H](C)NC(=O)[C@@H](N)CO)[C@@H](C)O)[C@@H](C)CC)C(=O)N[C@@H](CCC(N)=O)C(=O)N[C@@H](CC(N)=O)C(=O)N[C@@H](Cc1c[nH]cn1)C(=O)N[C@@H](Cc1ccccc1)C(=O)N[C@H](C(=O)N[C@@H](CC(=O)O)C(=O)N[C@@H](CCC(=O)O)C(=O)N[C@@H](Cc1ccc(O)cc1)C(=O)O)C(C)C [Ras 17-32] | 26 ± 2 | 34 | – | –
2 | LIQNHFVDEYDPTIE [Ras 23-37] | 5 ± 1 | – | 2 | –
3 | SALTIQLIQNHFVDEYDPTIE [Ras 17-37] | – | – | – | 58 ± 2
